The source of these data is publication PMC10301603, “Potent and Selective Benzothiazole-Based Antimitotics with Improved Water Solubility: Design, Synthesis, and Evaluation as Novel Anticancer Agents” (Pharmaceutics, 2023).

Common to all, as to format: cell-based, human
In one data set the test system is HT-29 cells. As to the kind of experiment: Cell growth inhibition (MTT) in the presence of 10 µM verapamil (sensitivity to MDR efflux pumps). Conditions: 10 µM verapamil (P-gp/MDR1 inhibitor).
The subject of a further data set is HEK-293 cells. As to the kind of experiment: Lactate dehydrogenase (LDH) release assay. The settings on record: HEK-293, 72 h; for LDH release: 100 µM. As to the method:
CytoTox96® Non-Radioactive Cytotoxicity Assay kit (Promega, Madison, WI, USA) was used to measure the release of lactate dehydrogenase (LDH) by following the previously described method in [46]. […] After treatment, the supernatants were collected, and the intact attached cells were lysed using 0.1% (w/v) Triton X-100 in (0.9%) NaCl solution. Both the LDH released to culture media, as well as the LDH content within the cells, were determined spectrophotometrically at 490 nm on a 96-well plate reader (Infinite 200, Tecan, Salzburg, Austria) by following the manufacturer’s instructions. LDH release was defined by the ratio of LDH released/total LDH present in the cells, with the total LDH being 100%. All the samples were run in quadruplicate.
For orientation: LDH leaks from cells whose membrane has failed.

Data set [1] concerns MCF7 cells. Briefly: Cell cycle analysis (PI, flow cytometry). Conditions: 8 and 14 100 nM, 9 500 nM. Here is the method: (§1) An amount of 8 × 10^4 cells/mL (HeLa, MCF7, or U87 MG cells) were seeded in 6-well plates (2 mL/well) and incubated in complete DMEM medium (see above) at 37 °C and 5% CO2 atmosphere for 24 h. Then, the medium was replaced with fresh complete DMEM in the presence or absence of the selected compounds (8, 9, and 14). The concentration of the compounds was selected according to their IC50 value for the antiproliferative activity in each cell line (see above, Section 2.4.4). HeLa cells were treated with 200 nM of compounds 8 and 14 and 500 nM of compound 9; MCF7 cells were treated with 100 nM of compounds 8 and 14 and 500 nM of compound 9; and U87 MG cells were treated with 50 nM of compound 8 and 100 nM of compounds 9 and 14. Untreated cells were used as negative controls. Cells were harvested 24, 48, or 72 h following treatment and fixed in ice-cold ethanol/PBS (7:3) overnight. Cells were then washed twice with PBS, suspended in PBS, and incubated overnight in darkness with 0.2 mg/mL RNase A (Sigma-Aldrich, St. Louis, MO, USA), 50 µg/mL propidium iodide (Sigma-Aldrich, St. Louis, MO, USA), and Triton 10× at room temperature. BD Accuri™ C6 Plus Flow Cytometer (BD Biosciences) was used to analyze samples, and BD Accuri™ C6 Software (version 1.0.264.21) was used for data analysis.
A general note: Flow cytometry measures light scatter and fluorescence of single cells or particles in a stream.

Data set [2] has as its system HeLa cells. As to the kind of experiment: Cell cycle analysis (PI, flow cytometry). The settings on record: 8 and 14 200 nM, 9 500 nM. Here is the method: as §1
The test system of data set [3] is MCF7 cells. As to the kind of experiment: Apoptotic cell death quantification (Annexin V-FITC/PI). Conditions: MCF7, 72 h; 8 and 14 100 nM, 9 500 nM. As to the method:
(§2) Annexin V-FITC/PI apoptosis detection kit (Immunostep, Salamanca, Spain) was used to quantify HeLa, MCF7, or U87 MG cells by following the manufacturer’s guidelines. An amount of 5 × 10^4 cells/mL were seeded in 12-well plates (1 mL/well) and incubated in complete DMEM medium (see above) at 37 °C and 5% CO2 atmosphere for 24 h. Then, the medium was replaced with fresh complete DMEM in the presence or absence of the selected compounds (8, 9, and 14). The concentration of the compounds was selected according to their IC50 value for the antiproliferative activity in each cell line (see above, Section 2.4.4). HeLa cells were treated with 200 nM of compounds 8 and 14 and 500 nM of compound 9; MCF7 cells were treated with 100 nM of compounds 8 and 14 and 500 nM of compound 9; and U87 MG cells were treated with 50 nM of compound 8 and 100 nM of compounds 9 and 14. Untreated cells were used as negative controls. After 72 h of incubation, cells were collected, centrifugated, resuspended in the Annexin V binding buffer, and stained with Annexin V-FITC/PI. Cells were then incubated in darkness for 15 min at room temperature. Samples were analyzed using BD Accuri™ C6 Plus Flow Cytometer (BD Biosciences), and acquired data were analyzed using BD Accuri™ C6 Software (version 1.0.264.21).

Data set [4] deals with HeLa cells. Described as above. Conditions: 72 h, 8 and 14 200 nM, 9 500 nM. As to the method: as §2
Another data set has as its system U87MG cells. The data set is described as above. Conditions: U87 MG, 72 h; 8 50 nM, 9 and 14 100 nM. As to the method:
as §2

As for `CCNC(=O)N(Cc1cccnc1)c1nc2ccc(OC)cc2s1` [Compound 8], the IC50 with HT-29 cells turned out to be 0.215 µM. Also, the LDH release with HEK-293 cells is around 30%. Further, the G2/M population turned out to be 32% in the data set with MCF7 cells [1] (MCF7, 24 h); 80% in the data set on HeLa cells [2] (24 h); 58% in the data set with HeLa cells [2] (48 h). For the same compound, the SubG0/G1 population in the data set on MCF7 cells [1] (MCF7, 48 h) was determined as 9%; in the data set with MCF7 cells [1] (MCF7, 72 h) it was 26%. Moreover, the “sub G0/G1 population” value in the data set with HeLa cells [2] (48 h) is listed as 14–18%; with HeLa cells [2] (72 h), 52%. In the data set with MCF7 cells [3], the “Alive cells (PI−, AnV−)” value is 46%. Further, the “apoptosis (apoptotic cells)” value with MCF7 cells [3] was 47%. Further, in the data set with HeLa cells [4], the “early and late apoptosis (apoptotic cells)” value is 93%. For the same compound, the “cells in early or late apoptosis (response to Annexin V)” value with U87MG cells was determined as 80%.

On to `COc1ccc2nc(N(C=O)Cc3cccnc3)sc2c1` [Compound 14, N-(6-methoxybenzo[d]thiazol-2-yl)-N-(pyridin-3-ylmethyl)formamide], for which the IC50 with HT-29 cells came out at 0.307 µM. Besides, the LDH release in the data set on HEK-293 cells is given as around 30%. Besides, in the data set with HEK-293 cells (between 0.1 and 1 µM), the “cytotoxic effect by LDH release (in words)” value is “No significant cytotoxic effects”. The G2/M population is recorded as 40% in the data set on MCF7 cells [1] (MCF7, 24 h); 30–35% with MCF7 cells [1] (MCF7, 48 h); 30–35% with MCF7 cells [1] (MCF7, 72 h); 56% in the data set on HeLa cells [2] (24 h); 60% in the data set on HeLa cells [2] (48 h). In addition, the SubG0/G1 population in the data set on MCF7 cells [1] (MCF7, 48 h) was 27%; in the data set with MCF7 cells [1] (MCF7, 72 h), 33%. Further, the “sub G0/G1 population” value with HeLa cells [2] (48 h) is recorded as 14–18%; in the data set on HeLa cells [2] (72 h), 43%. The “apoptosis (apoptotic cells)” value in the data set on MCF7 cells [3] was 71%. In addition, the “early and late apoptosis (apoptotic cells)” value in the data set with HeLa cells [4] was 86%. Also, in the data set with U87MG cells, the “cells in early or late apoptosis (response to Annexin V)” value worked out at 67%.

A word on the IC50: it is the midpoint of a concentration-inhibition curve.
